Assay results as given in US20170369492A1 (Takeda Pharmaceutical Company Limited, priority 2014, published 2017).

Molecular target: T1, human GPR43 (Homo sapiens, UniProt O15552)
T1 construct: expressed in transfected cells
T1 sequence (O15552 1-330): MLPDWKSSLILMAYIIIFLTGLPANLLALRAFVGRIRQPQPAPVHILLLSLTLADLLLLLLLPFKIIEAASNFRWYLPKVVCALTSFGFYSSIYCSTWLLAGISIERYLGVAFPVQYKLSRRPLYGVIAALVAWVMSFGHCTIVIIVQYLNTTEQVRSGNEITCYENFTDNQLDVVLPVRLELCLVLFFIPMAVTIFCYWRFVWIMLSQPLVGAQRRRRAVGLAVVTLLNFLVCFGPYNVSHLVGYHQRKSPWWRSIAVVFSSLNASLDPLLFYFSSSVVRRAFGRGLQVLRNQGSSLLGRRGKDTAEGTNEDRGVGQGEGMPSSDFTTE
Test: Ca-Flux Functional Assay: Determination of Agonist/Positive Allosteric Modulator (PAM) Activity
Type: cell-based
Settings: CHO-K1 Gα16 cells stably expressing human GPR43; compound added in the presence of EC20 sodium acetate; intracellular Ca2+ by FLIPR; agonist/PAM activity not distinguished
Experimental: Ca-Flux Functional Assay: Determination of Agonist/Positive Allosteric Modulator (PAM) Activity
GPR43 agonist/PAM activity was determined by measuring changes in intracellular calcium levels using a Ca^2+ sensitive fluorescent dye. The changes in fluorescent signal were monitored by FLIPR (manufactured by Molecular Devices). GPR43 mediated increases in intracellular Ca^2+ concentration were readily detected upon activation with sodium acetate. Prior to the assay (24 hours), CHO-K1 Gα16 cells stably expressing human GPR43 were-seeded in cell culture medium in black, clear-bottom 384-well plates (Corning Inc) and grown overnight at 37° C., 5% CO2. On the day of the assay, cell culture media was removed and cells were loaded with Calcium 5 Dye (Molecular Devices) diluted in HBSS containing 25 mM HEPES, 2.5 mM Probenecid, 0.1% BSA for 1 hour at 37° C., 5% CO2. 10 point half log concentration response curves of sodium acetate from 10 mM were conducted prior to the testing of compounds to calculate the sodium acetate concentration that produces 20% of the maximal response (EC20). Test compounds (at to point half log concentration response curves from 10 μM) were added in the presence of sodium acetate to achieve a final concentration that produces approximately 20% maximal response as calculated from the previous experiment. The changes in fluorescent signal were monitored by FLIPR upon addition of the compound/EC20 sodium acetate mix. The EC50 values were determined from ten point concentration response curves. Curves were generated using the average of two wells for each data point.
The above assay detects both GPR43 receptor agonists and positive allosteric modulators of the GPR43 receptor, without distinguishing between the two. Activity in either regard is useful in the treatment of conditions associated with GPR43 receptor activity.

| Structure (SMILES) | EC50 [nM] |
| --- | --- |
| COc1nccc2c(S(=O)(=O)c3ccccc3)c(N)n(C3CCCCC3)c12 [Example 36, 3-(benzenesulfonyl)-1-cyclohexyl-7-methoxy-1-pyrrolo[2,3-c]pyridin-2-amine] | 245 |
| N#Cc1ccc(S(=O)(=O)c2c(N)n(C3CCCCC3)c3nccnc23)cc1 [Example 113, 4-{6-amino-5-cyclohexyl-5H-pyrrolo[2,3-b]pyrazine-7-sulfonyl}benzonitrile] | 486 |
| Nc1c(S(=O)(=O)N2Cc3ccccc3C2)c2nccnc2n1C1CCCCC1 [Example 97, 5-cyclohexyl-7-(2,3-dihydro-1H-isoindole-2-sulfonyl)-5H-pyrrolo[2,3-b]pyrazin-6-amine] | 173 |
| Nc1c(S(=O)(=O)c2ccccc2)c2nccnc2n1C1CCC(F)(F)CC1 [Example 49, 5-(4,4-difluoro-cyclohexyl)-7-(phenylsulfonyl)-5H-pyrrolo[2,3-b]pyrazin-6-amine] | 211 |
| Nc1c(S(=O)(=O)c2ccccc2)c2ncnc(Cl)c2n1C1CCC(F)(F)CC1 [Example 32, 7-(benzenesulfonyl)-4-chloro-5-(4,4-difluorocyclohexyl)-5H-pyrrolo[3,2-d]pyrimidin-6-amine] | 689 |
| COC1CCN(S(=O)(=O)c2c(N)n(C3CCCCC3)c3nccnc23)CC1 [Example 73, 5-cyclohexyl-7-(4-methoxypiperidine-1-sulfonyl)-5H-pyrrolo[2,3-b]pyrazin-6-amine] | 488 |
| COc1ccc(S(=O)(=O)c2c(N)n(C3CCC(F)(F)CC3)c3ncccc23)cc1 [Example 14, 1-(4,4-difluorocyclohexyl)-3-[(4-methoxybenzene)sulfonyl]-1H-pyrrolo[2,3-b]pyridin-2-amine] | 138 |
| Nc1c(S(=O)(=O)c2ccccc2)c2nccnc2n1C1CCCOC1 (centres unmarked) [Example 51, 7-(phenylsulfonyl)-5-(tetrahydro-2H-pyran-3-yl)-5H-pyrrolo[2,3-b]pyrazin-6-amine] | 6000 |
| Nc1c(S(=O)(=O)N2CCC(c3ccccc3)CC2)c2nccnc2n1C1CCCCC1 [Example 83, 5-cyclohexyl-7-(4-phenylpiperidine-1-sulfonyl)-5H-pyrrolo[2,3-b]pyrazin-6-amine] | 931 |
| Nc1c(S(=O)(=O)C2CC2)c2nccnc2n1C1CCCCC1 [Example 109, 5-cyclohexyl-7-(cyclopropanesulfonyl)-5H-pyrrolo[2,3-b]pyrazin-6-amine] | 2900 |
| Nc1c(S(=O)(=O)NCC2CC2)c2nccnc2n1C1CCCCC1 [Example 89, 6-amino-5-cyclohexyl-N-(cyclopropylmethyl)-5H-pyrrolo[2,3-b]pyrazine-7-sulfonamide] | 658 |
| Nc1c(S(=O)(=O)c2ccccc2)c2nccnc2n1C1CCCCC1O (centres unmarked) [Example 47, 2-(6-amino-7-(phenylsulfonyl)-5H-pyrrolo[2,3-b]pyrazin-5-yl)cyclohexanol] | 6490 |
| CCCNS(=O)(=O)c1c(N)n(C2CCCCC2)c2nccnc12 [Example 59, 6-amino-5-cyclohexyl-N-propyl-5H-pyrrolo[2,3-b]pyrazine-7-sulfonamide] | 792 |
| CC1CN(S(=O)(=O)c2c(N)n(C3CCCCC3)c3nccnc23)CC(C)O1 (mixture of isomers) [Example 76, 5-cyclohexyl-7-(2,6-dimethylmorpholine-4-sulfonyl)-5H-pyrrolo[2,3-b]pyrazin-6-amine] | 1530 |
| COCC1CCN(S(=O)(=O)c2c(N)n(C3CCCCC3)c3nccnc23)C1 (centres unmarked) [Example 88, 5-cyclohexyl-7-[3-(methoxyrnethyl)pyrrolidine-1-sulfonyl]-5H-pyrrolo[2,3-b]pyrazin-6-amine] | 3150 |
| COc1ncnc2c(S(=O)(=O)c3ccccc3)c(N)n(C3CCCC3)c12 [Example 35, 7-(benzenesulfonyl)-5-cyclopentyl-4-methoxy-5H-pyrrolo[3,2-d]pyrimidin-6-amine] | 1860 |
| CCCCn1c(N)c(S(=O)(=O)c2ccccc2)c2nccnc21 [Example 45, 5-butyl-7-5(phenylsulfonyl)-5H-pyrrolo[2,3-b]pyrazin-6-amine] | 2890 |
| Nc1c(S(=O)(=O)c2ccccc2)c2cccnc2n1C1CCCCC1 [Example 15, 3-(benzenesulfonyl)-1-cyclohexyl-1H-pyrrolo[2,3-b]pyridin-2-amine] | 381 |
| Nc1c(S(=O)(=O)N2CCN(C(=O)c3ccc(F)cc3)CC2)c2nccnc2n1C1CCCCC1 [Example 98, 5-cyclohexyl-7-{4-[(4-fluorophenyl)carbonyl]piperazine-1-sulfonyl}-5H-pyrrolo[2,3-b]pyrazin-6-amine] | 2810 |

The remaining lines, values ahead:

| EC50 [nM] | Structure (SMILES) |
| --- | --- |
| 337 | Nc1c(S(=O)(=O)c2ccccc2)c2cncnc2n1C1CCCCC1 [Example 16] |
| 334 | CCC(C)NS(=O)(=O)c1c(N)n(C2CCCCC2)c2nccnc12 (centres unmarked) [Example 95, 6-amino-N-(butan-2-yl)-5-cyclohexyl-5H-pyrrrolo[2,3-b]pyrazine-7-sulfonamide] |
| 1800 | Nc1c(S(=O)(=O)N2CCCOCC2)c2nccnc2n1C1CCCCC1 [Example 72, 5-cyclohexyl-7-(1,4-oxazepane-4-sulfonyl)-5H-pyrrolo[2,3-b]pyrazin-6-amine] |
| 830 | CC1CCN(S(=O)(=O)c2c(N)n(C3CCCCC3)c3nccnc23)C1 (centres unmarked) [Example 67, 5-cyclohexyl-7-((3-methylpyrrolidin-1-yl)sulfonyl)-5H-pyrrolo[2,3-b]pyrazin-6-amine] |
| 1050 | Nc1c(S(=O)(=O)c2ccccc2)c2cnccc2n1C1CCCCC1 [Example 23, 3-(benzenesulfonyl)-1-cyclohexyl-1H-pyrrolo[3,2-c]pyridin-2-amine] |
| 468 | N#Cc1ncnc2c(S(=O)(=O)c3ccccc3)c(N)n(C3CCCCC3)c12 [Example 37, 6-amino-7-(benzenesulfonyl)-5-cyclohexyl-5H-pyrrolo[3,2-d]pyrimidine-4-carbonitrile] |
| 295 | COc1cccc(S(=O)(=O)c2c(N)n(C3CCCCC3)c3nccnc23)c1 [Example 112, 5-cyclohexyl-7-[(3-methoxybenzene)-sulfonyl]-5H-pyrrolo[2,3-b]pyrazin-6-amine] |
| 7380 | COc1ncnc2c(S(=O)(=O)c3ccccc3)c(N)n(C3CCOCC3)c12 [Example 40, 7-(benzenesulfonyl)-4-methoxy-5-(oxan-4-yl)-5H-pyrrolo[3,2-d]pyrimidin-6-amine] |
| 167 | COc1ccc(S(=O)(=O)c2c(N)n(C3CCC(F)(F)CC3)c3cccnc23)cc1 [Example 22, 1-(4,4-difluorocyclohexyl)-3-[(4-methoxybenzene)sulfonyl]-1H-pyrrolo[3,2-b]pyridin-2-amine] |
| 261 | Nc1c(S(=O)(=O)c2ccccc2)c2nccnc2n1C1CCCCC1 [Example 1, 7-(benzenesulfonyl)-5-cyclohexyl-5H-pyrrolo[2,3-b]pyrazin-6-amine] |
| 4320 | Nc1c(S(=O)(=O)N2CCOCC2)c2nccnc2n1C1CCCCC1 [Example 61, 5-cyclohexyl-7-(morpholinosulfonyl)-5H-pyrrolo[2,3-b]pyrazin-6-amine] |
| 1100 | Cc1ccc2c(S(=O)(=O)c3ccccc3)c(N)n(C3CCC(F)(F)CC3)c2n1 [Example 25, 3-(benzenesulfonyl)-1-(4,4-difluorocyclohexyl)-6-methyl-1H-pyrrolo[2,3-b]pyridin-2-amine] |
| 821 | Nc1c(S(=O)(=O)NCCC(F)(F)F)c2nccnc2n1C1CCCCC1 [Example 82, 6-amino-5-cyclohexyl-N-(3,3,3-trifluoropropyl)-5H-pyrrolo[2,3-b]pyrazine-7-sulfonamide] |
